Laboratory results published in patent US11098041B2 (Merck Patent GmbH, priority 2014, dated 2021).

How the values were obtained:
full-length human BTK = full-length human BTK (Homo sapiens (Human), UniProt Q06187); assay: Assay A: microfluidic off-chip mobility shift assay against BTK enzyme; assay type: biochemical
[1] = biological target: BTK C481S (His-TEV-hsBTK(328-659)(C481S)) (Homo sapiens (Human), UniProt Q06187, C481S); assay: Assay B: microfluidic off-chip mobility shift assay against BTK C481S enzyme; assay type: biochemical; details: BTK C481S mutant
Procedure: The mechanics of the assay platform are described by the vendor (PerkinElmer, Hopkinton, Mass.) on their website at the following URL: http://caliperls.com.
5 uL of enzyme buffer and 7.5 uL of ATP/KinKDR peptide substrate mix were added to Matrix (#4315) 384-well, sterile, flat-bottom polypropylene plates (Thermo Fisher Scientific, Hudson, N.H.) with 125 nL of serially diluted compounds prepared in 100% DMSO, and incubated for 90 min. at 25° C. Following the incubation period, reactions were terminated by adding 65 uL quench buffer consisting of 100 mM HEPES, pH 7.5, 0.015% Brij-35 (30%), 0.277% Coating Reagent #3 (PerkinElmer, Mountain View, Calif.), 5% DMSO. Terminated reactions were monitored at −2 PSI, −3000 V/−700 Volts in a LabChip 3000 plate reader from Caliper Life Sciences, a PerkinElmer Company (Hopkinton, Mass.), and the activity was quantified by laser-induced fluorescence measuring the charge/mass difference between substrate and product resulting from peptide phosphorylation. IC50 and efficacy were determined by plotting log [Inhibitor] vs. % Activity in GeneData Screener (Basel, Switzerland).

[2] = tested on: anti-IgM-induced expression of CD69 on CD19 positive cells (B cells) in human PBMCs; assay: Assay C: PBMC IC50 assay (anti-IgM-induced CD69 expression); assay type: cell-based; details: anti-IgM stimulation
Procedure: Btk is critical for mediating the signalling of B cell antigen receptor (BCR) after anti-IgM stimulation. Based on this principle, a functional cell-based assay was established to determine the potency of compounds at inhibiting anti-IgM-induced expression of CD69, a downstream BCR signaling event, in freshly isolated human peripheral blood mononuclear cells (PBMCs). In the assay, a 90 μl PBMC suspension containing 2.5×10^5 cells was pre-treated with 10 μl of test compound at various concentrations for an hour, and then incubated overnight (approximately 16-18 hours) with 5 μl 420 μg/ml affiniPure F(ab′)2 fragment goat anti-human IgM Fc fragment per well (Dianova, Cat. No.: 109-006-129). After the incubation, the cells were washed and immunostained with an APC-labeled mouse anti-human CD69 (BD Biosciences; clone: FN50), a PerCP-Cy5.5 labelled mouse anti-human CD19 (BD Biosciences; clone: SJ25C1) and a FITC-labelled mouse anti-human CD3 (BD Biosciences; clone: HIT3a), and fixed for flow cytometric analysis of CD69 expression on CD19 positive cells (B cells). The percentage of CD69 expressing CD19 positive cells was plotted against the concentrations of test compounds to obtain a concentration response curve, and calculate an IC50 value as a measure of the potency of test compounds in the assay.

BTK C481S (His-TEV-hsBTK(328-659)(C481S)), sequence (Q06187 328-659 C481S): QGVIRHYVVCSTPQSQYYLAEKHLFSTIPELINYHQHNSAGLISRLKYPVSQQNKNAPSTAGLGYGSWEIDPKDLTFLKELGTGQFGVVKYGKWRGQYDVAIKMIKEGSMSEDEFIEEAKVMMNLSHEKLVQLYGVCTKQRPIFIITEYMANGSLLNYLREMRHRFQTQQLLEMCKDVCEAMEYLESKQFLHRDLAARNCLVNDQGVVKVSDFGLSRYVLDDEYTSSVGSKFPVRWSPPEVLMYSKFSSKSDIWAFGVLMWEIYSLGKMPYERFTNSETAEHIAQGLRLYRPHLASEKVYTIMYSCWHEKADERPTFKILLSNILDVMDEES
full-length human BTK, sequence (Q06187 whole entry): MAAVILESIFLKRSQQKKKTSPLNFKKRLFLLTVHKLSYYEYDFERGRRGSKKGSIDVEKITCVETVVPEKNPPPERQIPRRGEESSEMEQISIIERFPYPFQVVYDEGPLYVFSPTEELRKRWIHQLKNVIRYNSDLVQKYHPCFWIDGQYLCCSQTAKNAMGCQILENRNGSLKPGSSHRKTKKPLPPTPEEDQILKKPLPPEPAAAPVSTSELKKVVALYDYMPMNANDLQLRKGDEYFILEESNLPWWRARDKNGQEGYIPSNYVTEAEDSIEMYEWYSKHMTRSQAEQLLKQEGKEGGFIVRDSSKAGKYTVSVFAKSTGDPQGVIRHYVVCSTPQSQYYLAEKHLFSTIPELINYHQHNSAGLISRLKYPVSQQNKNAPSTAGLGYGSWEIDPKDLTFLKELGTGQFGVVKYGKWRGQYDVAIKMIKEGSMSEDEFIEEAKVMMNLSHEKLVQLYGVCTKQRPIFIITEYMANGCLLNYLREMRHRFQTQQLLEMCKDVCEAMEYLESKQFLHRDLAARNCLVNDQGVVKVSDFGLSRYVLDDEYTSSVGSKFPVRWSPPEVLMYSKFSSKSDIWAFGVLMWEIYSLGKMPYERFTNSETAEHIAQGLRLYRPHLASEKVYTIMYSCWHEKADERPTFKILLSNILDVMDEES

| SMILES | IC50 (full-length human BTK) | IC50 [1] | IC50 [2] |
| --- | --- | --- | --- |
| Cn1cc(-c2nc3c(-c4ccc(CNC(=O)c5nc(C(C)(C)C)no5)cc4CO)ccnc3[nH]2)cn1 [Example 105, 3-tert-Butyl-[1,2,4]oxadiazole-5-carboxylic acid 3-hydroxymethyl-4-[2-(1-methyl-1H-pyrazol-4-yl)-3H-imidazo[4,5-b]pyridin-7-yl]-benzylamide] | < 100 nM | < 100 nM | 1000 to 5000 nM |
| Cn1cc(-c2nc3c(-c4ccc(CNC(=O)c5cc(C(C)(C)C)on5)c(F)c4)ccnc3[nH]2)cn1 [Example 67, 5-tert-Butyl-N-([2-fluoro-4-[2-(1-methyl-1H-pyrazol-4-yl)-3H-imidazo[4,5-b]pyridin-7-yl]phenyl]methyl)-1,2-oxazole-3-carboxamide] | < 100 nM | < 100 nM | < 100 nM |
| Cn1cc(-c2nc3c(-c4ccc(CNC(=O)c5ccc(C(C)(C)C)cc5)cc4)ccnc3[nH]2)cn1 [Example 110, 4-tert-Butyl-N-{4-[2-(1-methyl-1H-pyrazol-4-yl)-3H-imidazo[4,5-b]pyridin-7-yl]-benzyl}-benzamide] | < 100 nM | < 100 nM | 100 to 1000 nM |
| CN(C)c1ccc(-c2nc3c(-c4ccc(CNC(=O)N5CC(OC(C)(C)C)C5)c(F)c4)ccnc3[nH]2)nc1 [Example 90, 3-(tert-Butoxy)-N-[(4-[2-[5-(dimethylamino)pyridin-2-yl]-3H-imidazo[4,5-b]pyridin-7-yl]-2-fluorophenyl)methyl]azetidine-1-carboxamide] | < 100 nM | 100 to 1000 nM | 1000 to 5000 nM |
| CN(C)c1ccc(-c2nc3c(-c4ccc(CNC(=O)c5nc(C(C)(C)C)no5)c(F)c4)ccnc3[nH]2)nc1 [Example 148, 3-(tert-butyl)-N-(4-(2-(5-(dimethylamino)pyridin-2-yl)-3H-imidazo[4,5-b]pyridin-7-yl)-2-fluorobenzyl)-1,2,4-oxadiazole-5-carboxamide] | < 100 nM | < 100 nM | < 100 nM |
| CN1CCN(Cc2ccc(-c3nc4c(-c5ccc(CNC(=O)c6noc(C(C)(C)C)n6)c(F)c5)ccnc4[nH]3)cc2)CC1 [Example 71, 5-tert-Butyl-N-[[2-fluoro-4-(2-[4-[(4-methylpiperazin-1-yl)methyl]phenyl]-1H-imidazo[4,5-b]pyridin-7-yl)phenyl]methyl]-1,2,4-oxadiazole-3-carboxamide] | < 100 nM | < 100 nM | < 100 nM |
| CC(C)(C)c1nc(C(=O)NCc2ccc(-c3ccnc4[nH]c(C5CC5)nc34)cc2F)no1 [Example 27, 5-tert-Butyl-[1,2,4]oxadiazole-3-carboxylic acid 4-(2-cyclopropyl-3H-imidazo[4,5-b]pyridin-7-yl)-2-fluoro-benzylamide] | < 100 nM | < 100 nM | 1000 to 5000 nM |
| COc1ccc(-c2nc3c(-c4ccc(CNC(=O)c5ccc(C(C)(C)C)cc5)c(F)c4)ccnc3[nH]2)cc1 [Example 62, 4-tert-Butyl-N-([2-fluoro-4-[2-(4-methoxyphenyl)-3H-imidazo[4,5-b]pyridin-7-yl]phenyl]methyl) benzamide] | < 100 nM | < 100 nM | 100 to 1000 nM |
| CC(C)(C)c1noc(C(=O)NCc2ccc(-c3ccnc4[nH]c(-c5ccc(CN6CCOCC6)cn5)nc34)cc2F)n1 [Example 162, 3-tert-butyl-N-[(2-fluoro-4-[2-[5-(morpholin-4-ylmethyl)pyridin-2-yl]-3H-imidazo[4,5-b]pyridin-7-yl]phenyl)methyl]-1,2,4-oxadiazole-5-carboxamide] | < 100 nM |  | < 100 nM |
| CCn1cc(-c2nc3c(-c4ccc(CNC(=O)c5noc(C(C)(C)C)n5)c(F)c4)ccnc3[nH]2)cn1 [Example 131, 5-tert-Butyl-[1,2,4]oxadiazole-3-carboxylic acid 4-[2-(1-ethyl-1H-pyrazol-4-yl)-3H-imidazo[4,5-b]pyridin-7-yl]-2-fluoro-benzylamide] | < 100 nM |  | < 100 nM |
| CN(C)C(=O)N1CC=C(c2nc3c(-c4ccc(CNC(=O)c5noc(C(C)(C)C)n5)c(F)c4)ccnc3[nH]2)CC1 [Example 143, 4-[7-(4-{[(5-tert-Butyl-[1,2,4]oxadiazole-3-carbonyl)-amino]-methyl}-3-fluoro-phenyl)-3H-imidazo[4,5-b]pyridin-2-yl]-3,6-dihydro-2H-pyridine-1-carboxylic Acid Dimethylamide] | < 100 nM |  | < 100 nM |
| Cn1cc(-c2nc3c(-c4ccc(CNC(=O)c5noc(C6CC6)n5)c(F)c4)ccnc3[nH]2)cn1 [Example 59, 5-Cyclopropyl-N-([2-fluoro-4-[2-(1-methyl-1H-pyrazol-4-yl)-3H-imidazo[4,5-b]pyridin-7-yl]phenyl]methyl)-1,2,4-oxadiazole-3-carboxamide] | < 100 nM |  | 100 to 1000 nM |
| CCn1cc(-c2nc3c(-c4ccc(CNC(=O)c5nnc(C(C)(C)C)o5)c(F)c4)ccnc3[nH]2)cn1 [Example 135, 5-(tert-butyl)-N-(4-(2-(1-ethyl-1H-pyrazol-4-yl)-3H-imidazo[4,5-b]pyridin-7-yl)-2-fluorobenzyl)-1,3,4-oxadiazole-2-carboxamide] | < 100 nM |  | < 100 nM |

Now from value to compound, other results behind:

| IC50 (full-length human BTK) | IC50 [1] | SMILES | IC50 [2] |
| --- | --- | --- | --- |
| < 100 nM | 1000 to 5000 nM | Cn1cc(-c2nc3c(-c4ccc(CNC(=O)c5nnc(C(C)(C)C)o5)cc4)ccnc3[nH]2)cn1 [Example 109, 5-tert-Butyl-[1,3,4]oxadiazole-2-carboxylic acid 4-[2-(1-methyl-1H-pyrazol-4-yl)-3H-imidazo[4,5-b]pyridin-7-yl]-benzylamide] | 1000 to 5000 nM |
| < 100 nM | < 100 nM | CC(C)(C)c1nc(C(=O)NCc2ccc(-c3ccnc4[nH]c(-c5cnn(CCO)c5)nc34)cc2F)no1 [Example 70, 5-tert-Butyl-N-[(2-fluoro-4-[2-[1-(2-hydroxyethyl)-1H-pyrazol-4-yl]-3H-imidazo[4,5-b]pyridin-7-yl]phenyl)methyl]-1,2,4-oxadiazole-3-carboxamide] | 100 to 1000 nM |
| < 100 nM | < 100 nM | COc1ccc(-c2nc3c(-c4ccc(CNC(=O)c5ccc(C6CC6)cc5)c(F)c4)ccnc3[nH]2)cc1 [Example 63, 4-Cyclopropyl-N-([2-fluoro-4-[2-(4-methoxyphenyl)-3H-imidazo[4,5-b]pyridin-7-yl]phenyl]methyl) benzamide] | 1000 to 5000 nM |
| < 100 nM | < 100 nM | CC(C)(C)c1nc(C(=O)NCc2ccc(-c3ccnc4[nH]c(-c5ccc(N6CCCC6)cn5)nc34)cc2F)no1 [Example 80, 5-tert-Butyl-N-[(2-fluoro-4-[2-[5-(pyrrolidin-1-yl)pyridin-2-yl]-3H-imidazo[4,5-b]pyridin-7-yl]phenyl)methyl]-1,2,4-oxadiazole-3-carboxamide] | 100 to 1000 nM |
| < 100 nM | < 100 nM | COc1ccnc(-c2nc3c(-c4ccc(CNC(=O)c5noc(C(C)(C)C)n5)c(F)c4)ccnc3[nH]2)c1 [Example 75, 5-tert-Butyl-N-([2-fluoro-4-[2-(4-methoxypyridin-2-yl)-3H-imidazo[4,5-b]pyridin-7-yl]phenyl]methyl)-1,2,4-oxadiazole-3-carboxamide] | 100 to 1000 nM |
| < 100 nM |  | C=CC(=O)Nc1cccc(-c2nc3nccc(-c4ccc(CNC(=O)c5nc(C(C)(C)C)no5)c(F)c4)c3[nH]2)c1 [Example 163, 3-tert-butyl-N-[(2-fluoro-4-[2-[3-(prop-2-enamido)phenyl]-3H-imidazo[4,5-b]pyridin-7-yl]phenyl)methyl]-1,2,4-oxadiazole-5-carboxamide] | < 100 nM |
| < 100 nM |  | COc1ccc(-c2nc3c(-c4ccc(CNC(=O)c5nc(C(C)(C)C)no5)c(F)c4)ccnc3[nH]2)nc1 [Example 161, 3-tert-butyl-N-([2-fluoro-4-[2-(5-methoxypyridin-2-yl)-3H-imidazo[4,5-b]pyridin-7-yl]phenyl]methyl)-1,2,4-oxadiazole-5-carboxamide] | < 100 nM |
| < 100 nM |  | Cn1cc(-c2nc3c(-c4ccc(C5(NC(=O)c6noc(C(C)(C)C)n6)CC5)c(F)c4)ccnc3[nH]2)cn1 [Example 51, 5-tert-Butyl-N-(1-[2-fluoro-4-[2-(1-methyl-1H-pyrazol-4-yl)-3H-imidazo[4,5-b]pyridin-7-yl]phenyl]cyclopropyl)-1,2,4-oxadiazole-3-carboxamide] | < 100 nM |
